Experimental data: the supplement of paper PMC10307832

Columns and labels:
Assay in all cases: relative viability (nuclei count vs DMSO), 5 days (fraction); higher = more cells survive
NCI-H1437 = system: NCI-H1437
How it was run: (§1)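 Dosing by pin tool came one day after lung cancer cell lines were seeded in 1536-well plates, using either one drug or a fixed anchor-drug dose plus five library-drug doses (not always all listed) in √10 steps. After 5 days, nuclei were counted on 4× images. Relative viability is treated-well nuclei count divided by vehicle-well nuclei count, and values are medians of duplicate plates.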

HCC-827 = system: HCC-827
How it was run: as §1

NCI-H647 = system: NCI-H647
How it was run: as §1

NCI-H1355 = system: NCI-H1355
How it was run: as §1

SK-LU-1 = system: SK-LU-1
How it was run: as §1

NCI-H2405 = system: NCI-H2405
How it was run: as §1

NCI-H2342 = system: NCI-H2342
How it was run: as §1

NCI-H661 = system: NCI-H661
How it was run: as §1

EKVX = system: EKVX
How it was run: as §1

NCI-H1734 = system: NCI-H1734
How it was run: as §1

NCI-H2170 = system: NCI-H2170
How it was run: as §1

NCI-H596 = system: NCI-H596
How it was run: as §1

HCC-366 = system: HCC-366
How it was run: as §1

LOU-NH91 = system: LOU-NH91
How it was run: as §1

SK-MES-1 = system: SK-MES-1
How it was run: as §1

HARA = system: HARA
How it was run: as §1

NCI-H2228 = system: NCI-H2228
How it was run: as §1

NCI-H1395 = system: NCI-H1395
How it was run: as §1

LC-2-ad = system: LC-2-ad
How it was run: as §1

NCI-H2087 = system: NCI-H2087
How it was run: as §1

NCI-H2009 = system: NCI-H2009
How it was run: as §1

NCI-H1792 = system: NCI-H1792
How it was run: as §1

BEN = system: BEN
How it was run: as §1

Compound: NC(=O)Nc1cc(-c2cccc(F)c2)sc1C(=O)N[C@H]1CCCNC1 [AZD7762] + Cc1nc(Nc2ncc(C(=O)Nc3c(C)cccc3Cl)s2)cc(N2CCN(CCO)CC2)n1 [Dasatinib] (partner 0.075 µM)
- relative viability (NCI-H1437; first compound 0.01 µM): 0.346
- relative viability (NCI-H1437; first compound 0.03162 µM): 0.586
- relative viability (NCI-H1437; first compound 0.1 µM): 0.427
- relative viability (NCI-H1437; first compound 0.3162 µM): 0.286
- relative viability (NCI-H1437; first compound 1 µM): 0.307
- relative viability (HCC-827; first compound 0.01 µM): 0.418
- relative viability (HCC-827; first compound 0.03162 µM): 0.335
- relative viability (HCC-827; first compound 0.1 µM): 0.302
- relative viability (HCC-827; first compound 0.3162 µM): 0.31
- relative viability (HCC-827; first compound 1 µM): 0.186
- relative viability (NCI-H647; first compound 0.01 µM): 0.214
- relative viability (NCI-H647; first compound 0.03162 µM): 0.184
- relative viability (NCI-H647; first compound 0.1 µM): 0.197
- relative viability (NCI-H647; first compound 0.3162 µM): 0.143
- relative viability (NCI-H647; first compound 1 µM): 0.0925
- relative viability (NCI-H1355; first compound 0.01 µM): 0.668
- relative viability (NCI-H1355; first compound 0.03162 µM): 0.849
- relative viability (NCI-H1355; first compound 0.1 µM): 0.739
- relative viability (NCI-H1355; first compound 0.3162 µM): 0.681
- relative viability (NCI-H1355; first compound 1 µM): 0.506
- relative viability (SK-LU-1; first compound 0.01 µM): 0.183
- relative viability (SK-LU-1; first compound 0.03162 µM): 0.158
- relative viability (SK-LU-1; first compound 0.1 µM): 0.108
- relative viability (SK-LU-1; first compound 0.3162 µM): 0.126
- relative viability (SK-LU-1; first compound 1 µM): 0.128
- relative viability (NCI-H2405; first compound 0.01 µM): 0.234
- relative viability (NCI-H2405; first compound 0.03162 µM): 0.216
- relative viability (NCI-H2405; first compound 0.1 µM): 0.228
- relative viability (NCI-H2405; first compound 0.3162 µM): 0.157
- relative viability (NCI-H2405; first compound 1 µM): 0.177
- relative viability (NCI-H2342; first compound 0.01 µM): 0.326
- relative viability (NCI-H2342; first compound 0.03162 µM): 0.344
- relative viability (NCI-H2342; first compound 0.1 µM): 0.33
- relative viability (NCI-H2342; first compound 0.3162 µM): 0.309
- relative viability (NCI-H2342; first compound 1 µM): 0.31
- relative viability (NCI-H661; first compound 0.01 µM): 0.753
- relative viability (NCI-H661; first compound 0.03162 µM): 0.808
- relative viability (NCI-H661; first compound 0.1 µM): 0.575
- relative viability (NCI-H661; first compound 0.3162 µM): 0.468
- relative viability (NCI-H661; first compound 1 µM): 0.296
- relative viability (EKVX; first compound 0.01 µM): 0.623
- relative viability (EKVX; first compound 0.03162 µM): 0.615
- relative viability (EKVX; first compound 0.1 µM): 0.337
- relative viability (EKVX; first compound 0.3162 µM): 0.543
- relative viability (EKVX; first compound 1 µM): 0.521
- relative viability (NCI-H1734; first compound 0.01 µM): 0.537
- relative viability (NCI-H1734; first compound 0.03162 µM): 0.542
- relative viability (NCI-H1734; first compound 0.1 µM): 0.493
- relative viability (NCI-H1734; first compound 0.3162 µM): 0.394
- relative viability (NCI-H1734; first compound 1 µM): 0.35
- relative viability (NCI-H2170; first compound 0.01 µM): 0.602
- relative viability (NCI-H2170; first compound 0.03162 µM): 0.584
- relative viability (NCI-H2170; first compound 0.1 µM): 0.507
- relative viability (NCI-H2170; first compound 0.3162 µM): 0.529
- relative viability (NCI-H2170; first compound 1 µM): 0.401
- relative viability (NCI-H596; first compound 0.01 µM): 0.66
- relative viability (NCI-H596; first compound 0.03162 µM): 0.632
- relative viability (NCI-H596; first compound 0.1 µM): 0.715
- relative viability (NCI-H596; first compound 0.3162 µM): 0.611
- relative viability (NCI-H596; first compound 1 µM): 0.481
- relative viability (HCC-366; first compound 0.01 µM): 0.707
- relative viability (HCC-366; first compound 0.03162 µM): 0.625
- relative viability (HCC-366; first compound 0.1 µM): 0.659
- relative viability (HCC-366; first compound 0.3162 µM): 0.421
- relative viability (HCC-366; first compound 1 µM): 0.177
- relative viability (LOU-NH91; first compound 0.01 µM): 0.561
- relative viability (LOU-NH91; first compound 0.03162 µM): 0.596
- relative viability (LOU-NH91; first compound 0.1 µM): 0.558
- relative viability (LOU-NH91; first compound 0.3162 µM): 0.517
- relative viability (LOU-NH91; first compound 1 µM): 0.49
- relative viability (SK-MES-1; first compound 0.01 µM): 0.413
- relative viability (SK-MES-1; first compound 0.03162 µM): 0.468
- relative viability (SK-MES-1; first compound 0.1 µM): 0.302
- relative viability (SK-MES-1; first compound 0.3162 µM): 0.131
- relative viability (SK-MES-1; first compound 1 µM): 0.117
- relative viability (HARA; first compound 0.01 µM): 0.306
- relative viability (HARA; first compound 0.03162 µM): 0.304
- relative viability (HARA; first compound 0.1 µM): 0.275
- relative viability (HARA; first compound 0.3162 µM): 0.286
- relative viability (HARA; first compound 1 µM): 0.164
- relative viability (NCI-H2228; first compound 0.01 µM): 0.67
- relative viability (NCI-H2228; first compound 0.03162 µM): 0.606
- relative viability (NCI-H2228; first compound 0.1 µM): 0.373
- relative viability (NCI-H2228; first compound 0.3162 µM): 0.204
- relative viability (NCI-H2228; first compound 1 µM): 0.125
- relative viability (NCI-H1395; first compound 0.01 µM): 0.449
- relative viability (NCI-H1395; first compound 0.03162 µM): 0.424
- relative viability (NCI-H1395; first compound 0.1 µM): 0.427
- relative viability (NCI-H1395; first compound 0.3162 µM): 0.371
- relative viability (NCI-H1395; first compound 1 µM): 0.302
- relative viability (LC-2-ad; first compound 0.01 µM): 0.596
- relative viability (LC-2-ad; first compound 0.03162 µM): 0.513
- relative viability (LC-2-ad; first compound 0.1 µM): 0.374
- relative viability (LC-2-ad; first compound 0.3162 µM): 0.343
- relative viability (LC-2-ad; first compound 1 µM): 0.377
- relative viability (NCI-H2087; first compound 0.01 µM): 0.887
- relative viability (NCI-H2087; first compound 0.03162 µM): 0.979
- relative viability (NCI-H2087; first compound 0.1 µM): 0.919
- relative viability (NCI-H2087; first compound 0.3162 µM): 0.773
- relative viability (NCI-H2087; first compound 1 µM): 0.517
- relative viability (NCI-H2009; first compound 0.01 µM): 0.334
- relative viability (NCI-H2009; first compound 0.03162 µM): 0.287
- relative viability (NCI-H2009; first compound 0.1 µM): 0.342
- relative viability (NCI-H2009; first compound 0.3162 µM): 0.282
- relative viability (NCI-H2009; first compound 1 µM): 0.181
- relative viability (NCI-H1792; first compound 0.01 µM): 0.814
- relative viability (NCI-H1792; first compound 0.03162 µM): 0.861
- relative viability (NCI-H1792; first compound 0.1 µM): 0.753
- relative viability (NCI-H1792; first compound 0.3162 µM): 0.891
- relative viability (NCI-H1792; first compound 1 µM): 0.873
- relative viability (BEN; first compound 0.01 µM): 0.253
- relative viability (BEN; first compound 0.03162 µM): 0.297
- relative viability (BEN; first compound 0.1 µM): 0.282
- relative viability (BEN; first compound 0.3162 µM): 0.301
- relative viability (BEN; first compound 1 µM): 0.328
